Measured values taken from the supplement of paper PMC10307832.

Tests used:
Assay in all cases: relative viability (nuclei count vs DMSO), 5 days (fraction); higher = more cells survive
Shikonin + Olaparib = compound: CC(C)=CC[C@@H](O)C1=CC(=O)c2c(O)ccc(O)c2C1=O [Shikonin] + O=C(c1cc(Cc2n[nH]c(=O)c3ccccc23)ccc1F)N1CCN(C(=O)C2CC2)CC1 [Olaparib] (partner 8 µM)
Summary of the method: (§1)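 Lung cancer cell lines, seeded in 1536-well plates, were treated the following day by pin tool with a single drug or with five library-drug doses (not always all listed) in √10 steps on top of a fixed anchor-drug dose. Cells were fixed and nuclei stained in one step after 5 days, and nuclei were counted. Relative viability is the nuclei count for treated wells divided by that for vehicle wells, reported as medians of duplicate plates.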

[1] = compound: CC(C)N(CCCNC(=O)Nc1ccc(C(C)(C)C)cc1)C[C@H]1O[C@@H](n2ccc3c(N)ncnc32)[C@H](O)[C@@H]1O + CC(C)C[C@H](NC(=O)[C@H](Cc1ccccc1)NC(=O)c1cnccn1)B(O)O [Bortezomib] (partner 0.002 µM)
Summary of the method: as §1

[2] = compound: CC(C)N(CCCNC(=O)Nc1ccc(C(C)(C)C)cc1)C[C@H]1O[C@@H](n2ccc3c(N)ncnc32)[C@H](O)[C@@H]1O + C[C@]1(O)C[C@@H](c2nc(-c3ccc4ccc(-c5ccccc5)nc4c3)c3c(N)nccn32)C1 [Linsitinib] (partner 1 µM)
Summary of the method: as §1

Shikonin + Alpelisib = compound: CC(C)=CC[C@@H](O)C1=CC(=O)c2c(O)ccc(O)c2C1=O [Shikonin] + Cc1nc(NC(=O)N2CCC[C@H]2C(N)=O)sc1-c1ccnc(C(C)(C)C(F)(F)F)c1 [Alpelisib] (partner 2 µM)
Summary of the method: as §1

Cell Line NCI-H1355 has a relative viability (Shikonin + Olaparib; first compound 0.01 µM) of 0.811, a relative viability (Shikonin + Olaparib; first compound 0.1 µM) of 0.812 and a relative viability (Shikonin + Olaparib; first compound 0.3162 µM) of 0.786. The relative viability (Shikonin + Olaparib; first compound 1 µM) was 0.776, the relative viability ([1]; first compound 0.08 µM) was 1.15 and the relative viability ([1]; first compound 0.253 µM) was 1.2. The relative viability ([1]; first compound 2.53 µM) was 1.22, the relative viability ([1]; first compound 8 µM) was 1.08 and the relative viability ([2]; first compound 0.08 µM) was 0.751. It also gave a relative viability ([2]; first compound 0.253 µM) of 0.768, a relative viability ([2]; first compound 2.53 µM) of 0.859 and a relative viability ([2]; first compound 8 µM) of 0.843. It also gave a relative viability (Shikonin + Alpelisib; first compound 0.01 µM) of 0.819, a relative viability (Shikonin + Alpelisib; first compound 0.1 µM) of 0.823 and a relative viability (Shikonin + Alpelisib; first compound 0.3162 µM) of 0.943. For the same cell line, the relative viability (Shikonin + Alpelisib; first compound 1 µM) was 0.927.

HCC-78 showed a relative viability (Shikonin + Olaparib; first compound 0.01 µM) of 0.911, a relative viability (Shikonin + Olaparib; first compound 0.1 µM) of 0.753 and a relative viability (Shikonin + Olaparib; first compound 0.3162 µM) of 0.964. For the same cell line, the relative viability (Shikonin + Olaparib; first compound 1 µM) was 0.755, the relative viability ([1]; first compound 0.08 µM) was 0.488 and the relative viability ([1]; first compound 0.8 µM) was 0.213. It also gave a relative viability ([1]; first compound 2.53 µM) of 0.305, a relative viability ([1]; first compound 8 µM) of 0.577 and a relative viability ([2]; first compound 0.08 µM) of 0.576. For the same cell line, the relative viability ([2]; first compound 0.253 µM) was 0.437, the relative viability ([2]; first compound 0.8 µM) was 0.423 and the relative viability ([2]; first compound 2.53 µM) was 0.51. It also gave a relative viability ([2]; first compound 8 µM) of 0.456, a relative viability (Shikonin + Alpelisib; first compound 0.01 µM) of 0.311 and a relative viability (Shikonin + Alpelisib; first compound 0.1 µM) of 0.347. The relative viability (Shikonin + Alpelisib; first compound 0.3162 µM) was 0.352 and the relative viability (Shikonin + Alpelisib; first compound 1 µM) was 0.349.

For NCI-H1563, the relative viability ([1]; first compound 0.08 µM) was 0.844, the relative viability ([1]; first compound 0.253 µM) was 0.811 and the relative viability ([1]; first compound 0.8 µM) was 0.626. It also gave a relative viability ([1]; first compound 2.53 µM) of 0.873, a relative viability ([1]; first compound 8 µM) of 0.902 and a relative viability ([2]; first compound 0.08 µM) of 1.16. For the same cell line, the relative viability ([2]; first compound 0.253 µM) was 1.14, the relative viability ([2]; first compound 0.8 µM) was 1.32 and the relative viability ([2]; first compound 2.53 µM) was 1.27. The relative viability ([2]; first compound 8 µM) was 1.18, the relative viability (Shikonin + Alpelisib; first compound 0.01 µM) was 0.906 and the relative viability (Shikonin + Alpelisib; first compound 0.1 µM) was 0.999. It also gave a relative viability (Shikonin + Alpelisib; first compound 0.3162 µM) of 0.875 and a relative viability (Shikonin + Alpelisib; first compound 1 µM) of 0.779.

HCC-15 showed a relative viability (Shikonin + Olaparib; first compound 0.01 µM) of 0.796, a relative viability (Shikonin + Olaparib; first compound 0.1 µM) of 0.735 and a relative viability (Shikonin + Olaparib; first compound 0.3162 µM) of 0.722. It also gave a relative viability (Shikonin + Olaparib; first compound 1 µM) of 0.669, a relative viability ([1]; first compound 0.08 µM) of 0.979 and a relative viability ([1]; first compound 0.253 µM) of 1.04. The relative viability ([1]; first compound 0.8 µM) was 0.773, the relative viability ([1]; first compound 2.53 µM) was 1 and the relative viability ([1]; first compound 8 µM) was 0.943. The relative viability ([2]; first compound 0.08 µM) was 0.84, the relative viability ([2]; first compound 0.253 µM) was 0.908 and the relative viability ([2]; first compound 0.8 µM) was 0.909. For the same cell line, the relative viability ([2]; first compound 2.53 µM) was 0.9, the relative viability ([2]; first compound 8 µM) was 0.859 and the relative viability (Shikonin + Alpelisib; first compound 0.01 µM) was 0.881. For the same cell line, the relative viability (Shikonin + Alpelisib; first compound 0.1 µM) was 0.949, the relative viability (Shikonin + Alpelisib; first compound 0.3162 µM) was 1.04 and the relative viability (Shikonin + Alpelisib; first compound 1 µM) was 0.912.

With EKVX the relative viability (Shikonin + Olaparib; first compound 0.01 µM) was 0.922, the relative viability (Shikonin + Olaparib; first compound 0.1 µM) was 0.907 and the relative viability (Shikonin + Olaparib; first compound 0.3162 µM) was 0.889. It also gave a relative viability (Shikonin + Olaparib; first compound 1 µM) of 0.798, a relative viability ([1]; first compound 0.08 µM) of 1.06 and a relative viability ([1]; first compound 0.253 µM) of 1.24. It also gave a relative viability ([1]; first compound 0.8 µM) of 1.08, a relative viability ([1]; first compound 2.53 µM) of 0.993 and a relative viability ([1]; first compound 8 µM) of 0.786. It also gave a relative viability ([2]; first compound 0.08 µM) of 0.941, a relative viability ([2]; first compound 0.253 µM) of 0.972 and a relative viability ([2]; first compound 0.8 µM) of 0.914. For the same cell line, the relative viability ([2]; first compound 2.53 µM) was 0.943, the relative viability ([2]; first compound 8 µM) was 0.927 and the relative viability (Shikonin + Alpelisib; first compound 0.01 µM) was 0.863. For the same cell line, the relative viability (Shikonin + Alpelisib; first compound 0.1 µM) was 0.973, the relative viability (Shikonin + Alpelisib; first compound 0.3162 µM) was 1.07 and the relative viability (Shikonin + Alpelisib; first compound 1 µM) was 0.846.

NCI-H2126 was tested, and the relative viability (Shikonin + Olaparib; first compound 0.01 µM) was 0.953, the relative viability (Shikonin + Olaparib; first compound 0.1 µM) was 1.14 and the relative viability (Shikonin + Olaparib; first compound 0.3162 µM) was 0.943. It also gave a relative viability (Shikonin + Olaparib; first compound 1 µM) of 0.92, a relative viability ([1]; first compound 0.08 µM) of 1.03 and a relative viability ([1]; first compound 0.253 µM) of 1.12. It also gave a relative viability ([1]; first compound 0.8 µM) of 1.14, a relative viability ([1]; first compound 2.53 µM) of 1.08 and a relative viability ([1]; first compound 8 µM) of 1.05. The relative viability ([2]; first compound 0.08 µM) was 0.713, the relative viability ([2]; first compound 0.253 µM) was 0.674 and the relative viability ([2]; first compound 0.8 µM) was 0.743. The relative viability ([2]; first compound 2.53 µM) was 0.749, the relative viability ([2]; first compound 8 µM) was 0.676 and the relative viability (Shikonin + Alpelisib; first compound 0.01 µM) was 0.764. For the same cell line, the relative viability (Shikonin + Alpelisib; first compound 0.1 µM) was 0.843, the relative viability (Shikonin + Alpelisib; first compound 0.3162 µM) was 0.786 and the relative viability (Shikonin + Alpelisib; first compound 1 µM) was 0.763.

With LK-2 the relative viability (Shikonin + Olaparib; first compound 0.01 µM) was 0.744, the relative viability (Shikonin + Olaparib; first compound 0.1 µM) was 0.887 and the relative viability (Shikonin + Olaparib; first compound 0.3162 µM) was 0.75. It also gave a relative viability (Shikonin + Olaparib; first compound 1 µM) of 0.753, a relative viability ([2]; first compound 0.08 µM) of 0.678 and a relative viability ([2]; first compound 0.253 µM) of 0.405. It also gave a relative viability ([2]; first compound 0.8 µM) of 0.496, a relative viability ([2]; first compound 2.53 µM) of 0.554 and a relative viability ([2]; first compound 8 µM) of 0.509. For the same cell line, the relative viability (Shikonin + Alpelisib; first compound 0.01 µM) was 1.04, the relative viability (Shikonin + Alpelisib; first compound 0.1 µM) was 1.54 and the relative viability (Shikonin + Alpelisib; first compound 0.3162 µM) was 1.11. The relative viability (Shikonin + Alpelisib; first compound 1 µM) was 1.04.

Cell Line NCI-H1437 has a relative viability (Shikonin + Olaparib; first compound 0.01 µM) of 0.661, a relative viability (Shikonin + Olaparib; first compound 0.1 µM) of 0.678 and a relative viability (Shikonin + Olaparib; first compound 0.3162 µM) of 0.601. It also gave a relative viability (Shikonin + Olaparib; first compound 1 µM) of 0.521, a relative viability ([1]; first compound 0.08 µM) of 0.526 and a relative viability ([1]; first compound 0.253 µM) of 0.417. It also gave a relative viability ([1]; first compound 0.8 µM) of 0.309, a relative viability ([1]; first compound 2.53 µM) of 0.423 and a relative viability ([1]; first compound 8 µM) of 0.536. The relative viability ([2]; first compound 0.08 µM) was 0.974, the relative viability ([2]; first compound 0.253 µM) was 1.03 and the relative viability ([2]; first compound 0.8 µM) was 1.16. It also gave a relative viability ([2]; first compound 2.53 µM) of 1.05, a relative viability ([2]; first compound 8 µM) of 0.936 and a relative viability (Shikonin + Alpelisib; first compound 0.01 µM) of 0.987. The relative viability (Shikonin + Alpelisib; first compound 0.1 µM) was 1.14, the relative viability (Shikonin + Alpelisib; first compound 0.3162 µM) was 0.987 and the relative viability (Shikonin + Alpelisib; first compound 1 µM) was 1.1.

With COR-L23 the relative viability (Shikonin + Olaparib; first compound 0.01 µM) was 0.401, the relative viability (Shikonin + Olaparib; first compound 0.1 µM) was 0.306 and the relative viability (Shikonin + Olaparib; first compound 0.3162 µM) was 0.307. For the same cell line, the relative viability (Shikonin + Olaparib; first compound 1 µM) was 0.24, the relative viability ([1]; first compound 0.08 µM) was 0.87 and the relative viability ([1]; first compound 0.253 µM) was 0.968. It also gave a relative viability ([1]; first compound 0.8 µM) of 0.464, a relative viability ([1]; first compound 2.53 µM) of 1.1 and a relative viability ([1]; first compound 8 µM) of 0.929. The relative viability ([2]; first compound 0.08 µM) was 0.837, the relative viability ([2]; first compound 0.253 µM) was 0.934 and the relative viability ([2]; first compound 0.8 µM) was 0.916. The relative viability ([2]; first compound 2.53 µM) was 1.04, the relative viability ([2]; first compound 8 µM) was 0.897 and the relative viability (Shikonin + Alpelisib; first compound 0.01 µM) was 0.845. It also gave a relative viability (Shikonin + Alpelisib; first compound 0.1 µM) of 0.913, a relative viability (Shikonin + Alpelisib; first compound 0.3162 µM) of 0.86 and a relative viability (Shikonin + Alpelisib; first compound 1 µM) of 0.719.
